Laboratory results reported in the supplement of paper PMC5908809.

Legend:
Test in all cases: relative IC50 (inflection point of fitted viability curve, relative to fitted max inhibition); higher = less sensitive
Conditions in all cases: 72 h
[1] = tested on: DERL-7 (IL-2 2.5 ng/mL)
Method: (§1)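 Drug sensitivity and resistance testing: 5 concentrations over a 10,000-fold range, 72 h at 37 °C, viability by CellTiter-Glo normalised to DMSO and benzethonium chloride controls. IC50 is the inflection point of a logistic fit (min fixed at 0, max fitted), so it is relative to the fitted maximal inhibition. Kept only where fitted max inhibition is at least 50%.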

[2] = tested on: IMC-1 (IL-2 20 ng/mL)
Method: as §1

[3] = tested on: KAI3 (IL-2 2.5 ng/mL)
Method: as §1

[4] = tested on: KHYG-1 (IL-2 2.5 ng/mL)
Method: as §1

[5] = tested on: NK-92 (IL-2 2.5 ng/mL)
Method: as §1

[6] = tested on: NK-YS (IL-2 2.5 ng/mL)
Method: as §1

[7] = tested on: NKL (IL-2 2.5 ng/mL)
Method: as §1

[8] = tested on: SNK-6 (IL-2 2.5 ng/mL)
Method: as §1

[9] = tested on: YT (IL-2 2.5 ng/mL)
Method: as §1

[10] = tested on: normal primary NK cells, pool 2 (3 donors) (IL-2 2.5 ng/mL)
Method: as §1

[11] = tested on: normal primary NK cells, pool 3 (3 donors) (IL-2 2.5 ng/mL)
Method: as §1

[12] = tested on: normal primary NK cells, pool 1 (3 donors) (IL-2 2.5 ng/mL)
Method: as §1

[13] = tested on: normal primary NK cells, pool 1 (3 donors), resting (IL-2 0 ng/mL)
Method: as §1

Row | Compound | relative IC50 [1] | relative IC50 [2] | relative IC50 [3] | relative IC50 [4] | relative IC50 [5] | relative IC50 [6] | relative IC50 [7] | relative IC50 [8] | relative IC50 [9] | relative IC50 [10] | relative IC50 [11] | relative IC50 [12] | relative IC50 [13]
1 | NC(=O)Nc1cc(-c2cccc(F)c2)sc1C(=O)N[C@H]1CCCNC1 [AZD7762] | 115 nM | 353 nM | 28.8 nM | 29.2 nM | 131 nM | 132 nM | 43.2 nM | 127 nM | 145 nM |  |  |  | 
2 | CN(Cc1cnc2nc(N)nc(N)c2n1)c1ccc(C(=O)N[C@@H](CCC(=O)O)C(=O)O)cc1 [Methotrexate] | 268 nM | 26.1 nM | 17.9 nM | 17.8 nM | 21.1 nM | 19.1 nM | 38.4 nM | 9.91 nM | 13.7 nM | > 5000 nM | > 5000 nM |  | 
3 | Clc1ccc(Nc2nnc(Cc3ccncc3)c3ccccc23)cc1 [Vatalanib] |  |  |  |  |  |  |  |  |  |  | > 10000 nM | > 10000 nM | 
4 | NC1(c2ccc(-c3nc4ccn5c(=O)[nH]nc5c4cc3-c3ccccc3)cc2)CCC1 [MK-2206] | 103 nM |  |  |  |  |  |  |  |  |  |  |  | 
5 | O=P1(NCCCl)OCCCN1CCCl (configuration not stated) [Ifosfamide] | > 10000 nM | > 10000 nM | > 10000 nM | > 10000 nM | > 10000 nM |  | > 10000 nM |  | > 10000 nM | > 10000 nM | > 10000 nM |  | 
6 | CNC(=O)c1ccc2cc([C@@]3(O)CCn4cncc43)ccc2c1 [Orteronel] |  |  | > 10000 nM |  |  | > 10000 nM |  |  |  | > 10000 nM | > 10000 nM |  | 
7 | O=C1NC(=O)[C@@H](c2cn3c4c(cccc24)CCC3)[C@@H]1c1c[nH]c2ccccc12 [Tivantinib] | 347 nM | 310 nM | 167 nM | 221 nM | 115 nM | 118 nM | 370 nM | 50.8 nM | 238 nM |  |  |  | 
8 | CNC(=O)c1ccccc1Sc1ccc2c(/C=C/c3ccccn3)n[nH]c2c1 [Axitinib] | 323 nM | 2760 nM | 717 nM | 916 nM | 1500 nM | 1100 nM | 734 nM | 707 nM | 1200 nM |  |  |  | 
9 | CC(C)c1c(C(=O)Nc2ccccc2)c(-c2ccccc2)c(-c2ccc(F)cc2)n1CC[C@@H](O)C[C@@H](O)CC(=O)O [Atorvastatin] | 2180 nM | 1520 nM | 2760 nM | 2380 nM | 3670 nM | 579 nM | 332 nM |  | 1630 nM |  |  |  | 
10 | N#CCNC(=O)c1ccc(-c2ccnc(Nc3ccc(N4CCOCC4)cc3)n2)cc1 [Momelotinib] | 394 nM | 1800 nM | 205 nM | 173 nM | 346 nM | 796 nM | 178 nM | 891 nM | 1140 nM | 810 nM | 1000 nM | 177 nM | 
11 | Cc1csc(-c2nnc(Nc3ccc(Oc4ncccc4-c4ccnc(N)n4)cc3)c3ccccc23)c1 [AMG-900] | 11.1 nM | 123 nM |  | 11.3 nM | 58.5 nM | 5.4 nM | > 1000 nM | 2.8 nM |  | > 1000 nM |  | > 1000 nM | 
12 | CCN(CC)CCNC(=O)c1c(C)[nH]c(/C=C2\C(=O)Nc3ccc(F)cc32)c1C [Sunitinib] |  | > 1000 nM |  | > 1000 nM | > 1000 nM |  | > 1000 nM |  |  |  |  |  | 
13 | NC(=O)NO [Hydroxyurea] |  |  | 2630 nM |  |  |  |  |  |  |  |  |  | 
14 | COc1cc(Nc2ncc(F)c(Nc3ccc4c(n3)N(COP(=O)(O)O)C(=O)C(C)(C)O4)n2)cc(OC)c1OC [Fostamatinib] |  | > 2500 nM |  |  |  |  |  |  |  |  |  |  | 
15 | O=C(NC[C@H](O)CO)c1ccncc1Nc1ccc(I)cc1F [Pimasertib] |  |  |  | 83 nM |  |  | 49 nM | > 10000 nM |  |  |  |  | 
16 | COC(=O)N[C@@H](C)CNc1nccc(-c2cn(C(C)C)nc2-c2cc(Cl)cc(NS(C)(=O)=O)c2F)n1 [Encorafenib] |  |  |  | 34.3 nM |  |  |  |  |  | > 1000 nM | > 1000 nM | > 1000 nM | 
17 | Cc1cc(Nc2nc(N[C@@H](C)c3ncc(F)cn3)ncc2Cl)[nH]n1 [AZD1480] | 50.5 nM | 331 nM | 20.8 nM | 26.1 nM | 126 nM | 78.1 nM | 23.3 nM | 73.1 nM | 197 nM | 80.6 nM | 123 nM | 75.5 nM | 
18 | Cc1ccc(Nc2nccc(N(C)c3ccc4c(C)n(C)nc4c3)n2)cc1S(N)(=O)=O [Pazopanib] |  |  |  |  |  |  |  | 31.3 nM |  |  | > 10000 nM |  | 
19 | C[C@H](Nc1ncnc2nc[nH]c12)c1cc2cccc(Cl)c2c(=O)n1-c1ccccc1 [Duvelisib] | 44.5 nM |  |  |  |  |  |  |  |  |  |  |  | 
20 | N#Cc1ccc2[nH]c(O)c(-c3ccc(CN4CCOCC4)cn3)c2c1 [AZD-1080] | 3420 nM | 3180 nM |  |  | > 10000 nM |  |  | > 10000 nM |  |  |  |  | 
21 | Cc1cccc(-c2nn3c(c2-c2ccnc4ccc(C(N)=O)cc24)CCC3)n1 [Galunisertib] |  | > 1000 nM |  |  |  | > 1000 nM | > 1000 nM |  |  | > 1000 nM | > 1000 nM |  | 
22 | CC(C)Oc1cc(Nc2nc(N[C@@H](C)c3ccc(F)cn3)ncc2Cl)n[nH]1 [AZ-23] |  |  |  |  |  |  |  |  |  | 606 nM |  |  | > 1000 nM
23 | COc1ccc2c(OCc3nnc4ccc(-c5ccccc5)nn34)ccnc2c1 [AMG-208] | > 2500 nM |  |  |  |  |  |  |  |  |  |  |  | 
24 | CO[C@@H](C(=O)N1Cc2[nH]nc(NC(=O)c3ccc(N4CCN(C)CC4)cc3)c2C1)c1ccccc1 [Danusertib] | 175 nM | 312 nM | 460 nM | 493 nM | 337 nM | 204 nM | 1380 nM | 413 nM |  |  |  |  | 
25 | Cn1ncnc1[C@H]1c2n[nH]c(=O)c3cc(F)cc(c23)N[C@@H]1c1ccc(F)cc1 [Talazoparib] |  | 164 nM | 28.1 nM | 93.8 nM | 59.8 nM | 22.2 nM | 2.3 nM | 134 nM |  |  |  |  | 
26 | O=C(O)CC[C@H]1CC[C@@](c2cc(F)ccc2F)(S(=O)(=O)c2ccc(Cl)cc2)CC1 [MK-0752] |  |  |  |  |  |  |  |  |  | > 1000 nM |  |  | > 1000 nM
27 | CCC(C)(C)C(=O)O[C@H]1C[C@@H](C)C=C2C=C[C@H](C)[C@H](CC[C@@H]3C[C@@H](O)CC(=O)O3)[C@H]21 [Simvastatin] |  |  |  |  |  | 2380 nM | 2450 nM |  |  |  |  |  | 
